Test results taken from the kinase profiling compilation of Christmann-Franck et al. (2016).

Key:
Test in all cases: KINOMEscan competition binding
PRKD2 (human) = PRKD2 (human) (UniProt Q9BZL6)
MAP4K4 (human) = MAP4K4 (human) (UniProt O95819)
[1] = tested on: PIK3CA (human), P42336 [Q546K]
PLK3 (human) = PLK3 (human) (UniProt Q9H4B4)
CASK (human) = CASK (human) (UniProt O14936)
PAK2 (human) = PAK2 (human) (UniProt Q13177)
STK3 (human) = STK3 (human) (UniProt Q13188)
FGFR4 (human) = FGFR4 (human) (UniProt P22455)
[2] = tested on: EGFR (human), P00533 [G719C]
STK17B (human) = STK17B (human) (UniProt O94768)
CLK1 (human) = CLK1 (human) (UniProt P49759)
YES1 (human) = YES1 (human) (UniProt P07947)
RIOK2 (human) = RIOK2 (human) (UniProt Q9BVS4)
[3] = tested on: MET (human), P08581 [M1250T]
WEE1 (human) = WEE1 (human) (UniProt P30291)
TLK1 (human) = TLK1 (human) (UniProt Q9UKI8)
MAPK9 (human) = MAPK9 (human) (UniProt P45984)
IKBKB (human) = IKBKB (human) (UniProt O14920)
NEK4 (human) = NEK4 (human) (UniProt P51957)
PI4KB (human) = PI4KB (human) (UniProt Q9UBF8)
GRK7 (human) = GRK7 (human) (UniProt Q8WTQ7)
HIPK2 (human) = HIPK2 (human) (UniProt Q9H2X6)
PRKD3 (human) = PRKD3 (human) (UniProt O94806)
NEK6 (human) = NEK6 (human) (UniProt Q9HC98)
MAP3K2 (human) = MAP3K2 (human) (UniProt Q9Y2U5)
PTK2B (human) = PTK2B (human) (UniProt Q14289)
PRKCQ (human) = PRKCQ (human) (UniProt Q04759)
MYLK3 (human) = MYLK3 (human) (UniProt Q32MK0)
MAP3K3 (human) = MAP3K3 (human) (UniProt Q99759)
EIF2AK2 (human) = EIF2AK2 (human) (UniProt P19525)
[4] = tested on: KIT (human), P10721 [V559D/T670I]
DYRK1A (human) = DYRK1A (human) (UniProt Q13627)
MYLK4 (human) = MYLK4 (human) (UniProt Q86YV6)
TEK (human) = TEK (human) (UniProt Q02763)
PAK1 (human) = PAK1 (human) (UniProt Q13153)
RAF1 (human) = RAF1 (human) (UniProt P04049)
CDK3 (human) = CDK3 (human) (UniProt Q00526)
NEK7 (human) = NEK7 (human) (UniProt Q8TDX7)
PDGFRA (human) = PDGFRA (human) (UniProt P16234)
[5] = tested on: RET (human), P07949 [M918T]
MAPK3 (human) = MAPK3 (human) (UniProt P27361)
TSSK1B (human) = TSSK1B (human) (UniProt Q9BXA7)
CDK5 (human) = CDK5 (human) (UniProt Q00535)

Chain of MAPK9 (human) (P45984 whole entry, looked up): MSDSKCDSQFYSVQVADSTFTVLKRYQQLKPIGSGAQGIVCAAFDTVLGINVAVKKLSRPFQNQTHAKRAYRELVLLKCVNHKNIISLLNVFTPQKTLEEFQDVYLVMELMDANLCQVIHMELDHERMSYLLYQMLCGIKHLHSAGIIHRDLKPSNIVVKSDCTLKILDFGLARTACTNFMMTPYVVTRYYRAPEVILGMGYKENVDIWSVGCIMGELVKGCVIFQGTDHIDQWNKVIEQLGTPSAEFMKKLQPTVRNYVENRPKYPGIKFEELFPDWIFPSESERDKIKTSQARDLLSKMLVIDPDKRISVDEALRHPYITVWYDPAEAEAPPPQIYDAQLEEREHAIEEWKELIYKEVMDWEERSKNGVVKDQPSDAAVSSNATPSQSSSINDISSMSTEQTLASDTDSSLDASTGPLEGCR
Chain of MYLK4 (human) (Q86YV6 whole entry, looked up): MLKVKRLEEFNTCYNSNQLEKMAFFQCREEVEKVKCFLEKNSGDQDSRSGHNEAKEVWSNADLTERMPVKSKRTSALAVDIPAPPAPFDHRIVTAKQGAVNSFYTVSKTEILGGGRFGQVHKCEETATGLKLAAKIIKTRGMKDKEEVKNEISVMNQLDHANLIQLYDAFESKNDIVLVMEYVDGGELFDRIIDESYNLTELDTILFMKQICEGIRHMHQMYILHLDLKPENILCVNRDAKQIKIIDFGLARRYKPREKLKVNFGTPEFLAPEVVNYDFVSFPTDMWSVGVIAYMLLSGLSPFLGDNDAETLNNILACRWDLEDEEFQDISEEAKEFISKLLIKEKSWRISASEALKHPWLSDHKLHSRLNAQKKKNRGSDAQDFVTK
Chain of RIOK2 (human) (Q9BVS4 whole entry, looked up): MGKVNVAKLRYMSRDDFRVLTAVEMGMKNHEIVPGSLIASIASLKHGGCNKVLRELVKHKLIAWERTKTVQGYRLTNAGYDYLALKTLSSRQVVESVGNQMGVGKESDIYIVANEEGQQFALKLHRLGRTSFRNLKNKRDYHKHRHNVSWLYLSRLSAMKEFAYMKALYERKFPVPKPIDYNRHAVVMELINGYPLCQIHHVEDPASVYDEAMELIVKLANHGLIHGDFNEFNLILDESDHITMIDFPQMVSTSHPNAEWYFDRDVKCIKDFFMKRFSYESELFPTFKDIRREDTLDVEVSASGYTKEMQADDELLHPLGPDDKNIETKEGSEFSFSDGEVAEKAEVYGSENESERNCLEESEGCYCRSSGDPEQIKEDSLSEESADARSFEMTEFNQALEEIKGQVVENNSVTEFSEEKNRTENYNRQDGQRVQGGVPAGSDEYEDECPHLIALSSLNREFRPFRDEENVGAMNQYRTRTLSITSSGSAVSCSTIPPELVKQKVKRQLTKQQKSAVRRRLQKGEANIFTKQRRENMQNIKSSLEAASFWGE
Chain of YES1 (human) (P07947 whole entry, looked up): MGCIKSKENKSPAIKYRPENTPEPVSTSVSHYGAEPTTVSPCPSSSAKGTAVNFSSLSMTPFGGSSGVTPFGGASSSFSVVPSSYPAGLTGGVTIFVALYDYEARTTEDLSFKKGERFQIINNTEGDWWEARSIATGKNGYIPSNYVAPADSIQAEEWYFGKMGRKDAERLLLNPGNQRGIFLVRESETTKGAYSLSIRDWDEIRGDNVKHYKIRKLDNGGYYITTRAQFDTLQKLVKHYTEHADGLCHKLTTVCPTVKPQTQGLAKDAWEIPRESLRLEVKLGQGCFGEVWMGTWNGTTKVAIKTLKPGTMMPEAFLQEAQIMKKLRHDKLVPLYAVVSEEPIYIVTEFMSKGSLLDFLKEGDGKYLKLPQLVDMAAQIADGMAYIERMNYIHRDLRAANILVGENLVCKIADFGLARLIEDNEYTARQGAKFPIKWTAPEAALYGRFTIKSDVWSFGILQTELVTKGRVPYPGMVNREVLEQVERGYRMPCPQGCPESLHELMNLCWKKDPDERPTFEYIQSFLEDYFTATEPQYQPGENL
Chain of PLK3 (human) (Q9H4B4 whole entry, looked up): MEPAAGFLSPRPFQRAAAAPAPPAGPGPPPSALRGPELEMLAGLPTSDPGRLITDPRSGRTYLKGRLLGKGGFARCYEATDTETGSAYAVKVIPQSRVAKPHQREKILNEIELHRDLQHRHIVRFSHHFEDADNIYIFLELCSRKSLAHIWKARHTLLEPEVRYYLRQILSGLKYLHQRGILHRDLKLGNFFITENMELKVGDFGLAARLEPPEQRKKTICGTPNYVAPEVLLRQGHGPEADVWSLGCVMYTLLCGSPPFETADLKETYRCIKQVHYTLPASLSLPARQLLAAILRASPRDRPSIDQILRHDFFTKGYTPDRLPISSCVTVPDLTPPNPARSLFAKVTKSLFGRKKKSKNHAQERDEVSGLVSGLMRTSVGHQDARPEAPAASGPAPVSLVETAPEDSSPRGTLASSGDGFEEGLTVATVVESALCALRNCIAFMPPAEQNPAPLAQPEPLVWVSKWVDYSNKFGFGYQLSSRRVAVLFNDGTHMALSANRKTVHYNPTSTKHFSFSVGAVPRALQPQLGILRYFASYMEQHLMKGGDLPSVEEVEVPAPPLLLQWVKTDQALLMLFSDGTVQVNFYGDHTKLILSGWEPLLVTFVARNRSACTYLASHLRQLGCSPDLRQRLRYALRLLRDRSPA
Chain of PRKCQ (human) (Q04759 whole entry, looked up): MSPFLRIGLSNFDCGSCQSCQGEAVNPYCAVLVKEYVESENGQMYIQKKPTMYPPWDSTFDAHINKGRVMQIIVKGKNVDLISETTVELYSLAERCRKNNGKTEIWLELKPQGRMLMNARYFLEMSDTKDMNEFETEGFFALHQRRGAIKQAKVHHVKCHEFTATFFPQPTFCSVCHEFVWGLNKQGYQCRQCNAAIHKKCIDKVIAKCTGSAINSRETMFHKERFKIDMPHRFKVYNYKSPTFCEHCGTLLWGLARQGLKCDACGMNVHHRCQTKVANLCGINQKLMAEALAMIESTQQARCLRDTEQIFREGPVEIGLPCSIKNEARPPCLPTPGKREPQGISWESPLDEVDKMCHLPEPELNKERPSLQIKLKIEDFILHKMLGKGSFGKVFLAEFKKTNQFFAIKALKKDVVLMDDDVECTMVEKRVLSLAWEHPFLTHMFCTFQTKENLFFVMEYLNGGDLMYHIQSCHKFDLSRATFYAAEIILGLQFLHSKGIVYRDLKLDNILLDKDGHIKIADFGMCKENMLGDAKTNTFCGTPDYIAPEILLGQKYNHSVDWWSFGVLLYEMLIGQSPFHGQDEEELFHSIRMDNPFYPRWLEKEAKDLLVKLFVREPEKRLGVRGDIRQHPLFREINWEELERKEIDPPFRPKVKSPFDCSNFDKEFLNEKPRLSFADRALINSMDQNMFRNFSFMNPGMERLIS
Chain of PI4KB (human) (Q9UBF8 whole entry, looked up): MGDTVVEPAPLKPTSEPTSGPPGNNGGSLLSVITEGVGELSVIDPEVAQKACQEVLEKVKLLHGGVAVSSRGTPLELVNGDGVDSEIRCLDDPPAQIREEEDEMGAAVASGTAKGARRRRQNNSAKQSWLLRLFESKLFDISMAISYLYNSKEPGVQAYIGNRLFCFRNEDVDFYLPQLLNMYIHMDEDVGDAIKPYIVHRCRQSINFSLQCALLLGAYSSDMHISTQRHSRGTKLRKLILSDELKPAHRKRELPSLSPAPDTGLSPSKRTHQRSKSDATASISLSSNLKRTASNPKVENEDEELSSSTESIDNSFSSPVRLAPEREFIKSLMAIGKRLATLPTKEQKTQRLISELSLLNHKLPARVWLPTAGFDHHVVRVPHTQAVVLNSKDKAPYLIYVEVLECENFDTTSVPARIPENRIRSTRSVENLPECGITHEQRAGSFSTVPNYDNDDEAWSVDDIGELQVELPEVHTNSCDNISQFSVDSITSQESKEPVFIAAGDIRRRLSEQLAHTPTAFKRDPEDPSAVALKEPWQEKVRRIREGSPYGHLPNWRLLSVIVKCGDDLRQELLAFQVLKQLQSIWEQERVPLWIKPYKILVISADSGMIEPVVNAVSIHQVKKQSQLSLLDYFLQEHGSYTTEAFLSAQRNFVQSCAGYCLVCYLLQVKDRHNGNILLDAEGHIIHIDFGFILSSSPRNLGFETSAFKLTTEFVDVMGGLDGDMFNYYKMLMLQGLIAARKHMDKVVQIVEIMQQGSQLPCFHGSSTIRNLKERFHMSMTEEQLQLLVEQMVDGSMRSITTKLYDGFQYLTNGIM
Chain of PAK1 (human) (Q13153 whole entry, looked up): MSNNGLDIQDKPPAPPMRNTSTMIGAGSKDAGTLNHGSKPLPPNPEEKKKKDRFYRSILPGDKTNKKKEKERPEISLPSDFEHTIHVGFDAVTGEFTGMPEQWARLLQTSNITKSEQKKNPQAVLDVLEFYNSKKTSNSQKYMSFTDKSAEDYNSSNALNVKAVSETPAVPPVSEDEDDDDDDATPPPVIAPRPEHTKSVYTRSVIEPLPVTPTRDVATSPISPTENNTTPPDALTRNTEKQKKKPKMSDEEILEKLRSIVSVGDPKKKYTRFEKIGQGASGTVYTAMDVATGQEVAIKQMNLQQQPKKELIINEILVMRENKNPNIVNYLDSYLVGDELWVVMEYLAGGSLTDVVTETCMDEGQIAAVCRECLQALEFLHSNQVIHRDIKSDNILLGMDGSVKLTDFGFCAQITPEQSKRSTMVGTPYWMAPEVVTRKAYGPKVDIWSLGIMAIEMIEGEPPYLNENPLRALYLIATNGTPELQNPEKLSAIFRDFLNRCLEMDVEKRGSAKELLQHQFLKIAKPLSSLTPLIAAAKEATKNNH
Chain of CDK3 (human) (Q00526 whole entry, looked up): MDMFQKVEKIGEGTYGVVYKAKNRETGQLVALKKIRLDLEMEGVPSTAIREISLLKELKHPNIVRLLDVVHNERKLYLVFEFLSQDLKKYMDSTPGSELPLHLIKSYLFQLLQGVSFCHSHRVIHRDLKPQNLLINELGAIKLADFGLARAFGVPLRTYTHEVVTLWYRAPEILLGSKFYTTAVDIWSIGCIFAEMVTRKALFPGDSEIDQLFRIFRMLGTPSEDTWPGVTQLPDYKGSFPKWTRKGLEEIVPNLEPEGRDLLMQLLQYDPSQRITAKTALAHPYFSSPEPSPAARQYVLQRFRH

**Q.** Which results are given for `Cc1cc(NC(=O)c2cccc(NC(=O)/C=C/CN(C)C)c2)ccc1Nc1nccc(-c2cccnc2)n1`?
**A.** kinase still bound, per cent of control (PRKD2 (human); compound 1.0 µM): 100%; kinase still bound, per cent of control (MAP4K4 (human); compound 1.0 µM): 92%; kinase still bound, per cent of control ([1]; compound 1.0 µM): 100%; kinase still bound, per cent of control (PLK3 (human); compound 1.0 µM): 66%; kinase still bound, per cent of control (CASK (human); compound 1.0 µM): 100%; kinase still bound, per cent of control (PAK2 (human); compound 1.0 µM): 100%; kinase still bound, per cent of control (STK3 (human); compound 1.0 µM): 48%; kinase still bound, per cent of control (FGFR4 (human); compound 1.0 µM): 100%; kinase still bound, per cent of control ([2]; compound 1.0 µM): 81%; kinase still bound, per cent of control (STK17B (human); compound 1.0 µM): 72%; kinase still bound, per cent of control (CLK1 (human); compound 1.0 µM): 100%; kinase still bound, per cent of control (YES1 (human); compound 1.0 µM): 86%; Kd (RIOK2 (human)): 120 nM; kinase still bound, per cent of control (RIOK2 (human); compound 1.0 µM): 10%; kinase still bound, per cent of control ([3]; compound 1.0 µM): 6.2%; kinase still bound, per cent of control (WEE1 (human); compound 1.0 µM): 100%; kinase still bound, per cent of control (TLK1 (human); compound 1.0 µM): 98%; kinase still bound, per cent of control (MAPK9 (human); compound 1.0 µM): 0%; kinase still bound, per cent of control (IKBKB (human); compound 1.0 µM): 99%; kinase still bound, per cent of control (NEK4 (human); compound 1.0 µM): 79%; kinase still bound, per cent of control (PI4KB (human); compound 1.0 µM): 82%; kinase still bound, per cent of control (GRK7 (human); compound 1.0 µM): 72%; kinase still bound, per cent of control (HIPK2 (human); compound 1.0 µM): 71%; kinase still bound, per cent of control (PRKD3 (human); compound 1.0 µM): 80%; kinase still bound, per cent of control (NEK6 (human); compound 1.0 µM): 100%; kinase still bound, per cent of control (MAP3K2 (human); compound 1.0 µM): 100%; kinase still bound, per cent of control (PTK2B (human); compound 1.0 µM): 87%; kinase still bound, per cent of control (PRKCQ (human); compound 1.0 µM): 100%; kinase still bound, per cent of control (MYLK3 (human); compound 1.0 µM): 100%; kinase still bound, per cent of control (MAP3K3 (human); compound 1.0 µM): 95%; kinase still bound, per cent of control (EIF2AK2 (human); compound 1.0 µM): 82%; kinase still bound, per cent of control ([4]; compound 1.0 µM): 4.4%; kinase still bound, per cent of control (DYRK1A (human); compound 1.0 µM): 81%; Kd (MYLK4 (human)): 4 µM; kinase still bound, per cent of control (MYLK4 (human); compound 1.0 µM): 9.6%; kinase still bound, per cent of control (TEK (human); compound 1.0 µM): 76%; kinase still bound, per cent of control (PAK1 (human); compound 1.0 µM): 100%; kinase still bound, per cent of control (RAF1 (human); compound 1.0 µM): 93%; kinase still bound, per cent of control (CDK3 (human); compound 1.0 µM): 100%; kinase still bound, per cent of control (NEK7 (human); compound 1.0 µM): 100%; kinase still bound, per cent of control (PDGFRA (human); compound 1.0 µM): 71%; kinase still bound, per cent of control ([5]; compound 1.0 µM): 90%; kinase still bound, per cent of control (MAPK3 (human); compound 1.0 µM): 100%; kinase still bound, per cent of control (TSSK1B (human); compound 1.0 µM): 100%; kinase still bound, per cent of control (CDK5 (human); compound 1.0 µM): 100%

**Q.** What does the source list for `Cc1ccc(NC(=O)c2ccc(NC(=O)/C=C/CN(C)C)cc2)cc1Nc1nccc(-c2cccnc2)n1`?
**A.** kinase still bound, per cent of control (PRKD2 (human); compound 10.0 µM): 100%; kinase still bound, per cent of control (MAP4K4 (human); compound 10.0 µM): 78%; kinase still bound, per cent of control ([1]; compound 10.0 µM): 94%; kinase still bound, per cent of control (PLK3 (human); compound 10.0 µM): 46%; kinase still bound, per cent of control (CASK (human); compound 10.0 µM): 79%; kinase still bound, per cent of control (PAK2 (human); compound 10.0 µM): 80%; kinase still bound, per cent of control (STK3 (human); compound 10.0 µM): 100%; kinase still bound, per cent of control (FGFR4 (human); compound 10.0 µM): 100%; kinase still bound, per cent of control ([2]; compound 10.0 µM): 45%; kinase still bound, per cent of control (STK17B (human); compound 10.0 µM): 64%; kinase still bound, per cent of control (CLK1 (human); compound 10.0 µM): 24%; kinase still bound, per cent of control (YES1 (human); compound 10.0 µM): 100%; kinase still bound, per cent of control (RIOK2 (human); compound 10.0 µM): 3.2%; kinase still bound, per cent of control ([3]; compound 10.0 µM): 100%; kinase still bound, per cent of control (WEE1 (human); compound 10.0 µM): 100%; kinase still bound, per cent of control (TLK1 (human); compound 10.0 µM): 74%; Kd (MAPK9 (human)): 160 nM; kinase still bound, per cent of control (MAPK9 (human); compound 10.0 µM): 1.1%; kinase still bound, per cent of control (IKBKB (human); compound 10.0 µM): 70%; kinase still bound, per cent of control (NEK4 (human); compound 10.0 µM): 100%; kinase still bound, per cent of control (PI4KB (human); compound 10.0 µM): 40%; kinase still bound, per cent of control (GRK7 (human); compound 10.0 µM): 82%; kinase still bound, per cent of control (HIPK2 (human); compound 10.0 µM): 54%; kinase still bound, per cent of control (PRKD3 (human); compound 10.0 µM): 100%; kinase still bound, per cent of control (NEK6 (human); compound 10.0 µM): 44%; kinase still bound, per cent of control (MAP3K2 (human); compound 10.0 µM): 84%; kinase still bound, per cent of control (PTK2B (human); compound 10.0 µM): 100%; kinase still bound, per cent of control (PRKCQ (human); compound 10.0 µM): 100%; kinase still bound, per cent of control (MYLK3 (human); compound 10.0 µM): 97%; kinase still bound, per cent of control (MAP3K3 (human); compound 10.0 µM): 81%; kinase still bound, per cent of control (EIF2AK2 (human); compound 10.0 µM): 100%; kinase still bound, per cent of control ([4]; compound 10.0 µM): 18%; kinase still bound, per cent of control (DYRK1A (human); compound 10.0 µM): 98%; kinase still bound, per cent of control (MYLK4 (human); compound 10.0 µM): 55%; kinase still bound, per cent of control (TEK (human); compound 10.0 µM): 93%; kinase still bound, per cent of control (PAK1 (human); compound 10.0 µM): 89%; kinase still bound, per cent of control (RAF1 (human); compound 10.0 µM): 55%; kinase still bound, per cent of control (CDK3 (human); compound 10.0 µM): 100%; kinase still bound, per cent of control (NEK7 (human); compound 10.0 µM): 20%; kinase still bound, per cent of control (PDGFRA (human); compound 10.0 µM): 0.4%; kinase still bound, per cent of control ([5]; compound 10.0 µM): 81%; kinase still bound, per cent of control (MAPK3 (human); compound 10.0 µM): 100%; kinase still bound, per cent of control (TSSK1B (human); compound 10.0 µM): 100%; kinase still bound, per cent of control (CDK5 (human); compound 10.0 µM): 100%
